Measurements reported in PubChem BioAssay (NCI).
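In this assay, cells in 96-well plates receive the compound at five concentrations for 48 hours. Endpoints are linearly interpolated between the surrounding concentrations. GI50 = concentration required for 50% inhibition of growth. At the TGI there is no net growth.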

What was measured:
Assay in all cases: inhibition of tumour cell growth, NCI panel, 48 h
U251 CNS = tested on: U251 CNS
OVCAR-8 ovarian = tested on: OVCAR-8 ovarian
SK-OV-3 ovarian = tested on: SK-OV-3 ovarian
SK-MEL-5 melanoma = tested on: SK-MEL-5 melanoma
EKVX NSCLC = tested on: EKVX NSCLC
SW-620 colon = tested on: SW-620 colon
A498 renal = tested on: A498 renal
HOP-92 NSCLC = tested on: HOP-92 NSCLC
SF-268 CNS = tested on: SF-268 CNS
HCC-2998 colon = tested on: HCC-2998 colon
HCT-15 colon = tested on: HCT-15 colon
MCF7 breast = tested on: MCF7 breast
K-562 leukemia = tested on: K-562 leukemia
SNB-19 CNS = tested on: SNB-19 CNS
SF-539 CNS = tested on: SF-539 CNS
NCI/ADR-RES ovarian = tested on: NCI/ADR-RES ovarian
UACC-62 melanoma = tested on: UACC-62 melanoma
IGROV1 ovarian = tested on: IGROV1 ovarian
MDA-MB-435 = tested on: MDA-MB-435
HS 578T breast = tested on: HS 578T breast
HL-60(TB) leukemia = tested on: HL-60(TB) leukemia
ACHN renal = tested on: ACHN renal
KM12 colon = tested on: KM12 colon
786-0 renal = tested on: 786-0 renal
LOX IMVI melanoma = tested on: LOX IMVI melanoma
OVCAR-4 ovarian = tested on: OVCAR-4 ovarian
T-47D breast = tested on: T-47D breast
COLO 205 colon = tested on: COLO 205 colon
NCI-H226 lung = tested on: NCI-H226 lung

`CS(=O)(=O)Nc1cc(-c2ccc3ncc(C#N)c(Nc4cccc(Cl)c4F)c3c2)cnc1Cl` showed a TGI (U251 CNS) of 1280 nM, a GI50 (OVCAR-8 ovarian) of 369 nM and a TGI (OVCAR-8 ovarian) of 4230 nM. It also gave a GI50 (SK-OV-3 ovarian) of 360 nM, a TGI (SK-OV-3 ovarian) of 2610 nM and a GI50 (SK-MEL-5 melanoma) of 49.2 nM. It also gave a TGI (SK-MEL-5 melanoma) of 182 nM, a GI50 (EKVX NSCLC) of 367 nM and a TGI (EKVX NSCLC) of 2630 nM. The GI50 (SW-620 colon) was 73.3 nM, the TGI (SW-620 colon) was 1820 nM and the GI50 (A498 renal) was 93.7 nM. The TGI (A498 renal) was 471 nM, the GI50 (HOP-92 NSCLC) was 21.9 nM and the TGI (HOP-92 NSCLC) was 348 nM. It also gave a GI50 (SF-268 CNS) of 87.6 nM, a TGI (SF-268 CNS) of 1810 nM and a GI50 (HCC-2998 colon) of 507 nM. The TGI (HCC-2998 colon) was 2190 nM, the GI50 (HCT-15 colon) was 111 nM and the TGI (HCT-15 colon) was 2870 nM. It also gave a GI50 (MCF7 breast) of 64.3 nM, a TGI (MCF7 breast) of 4030 nM and a GI50 (K-562 leukemia) of 115 nM. For the same compound, the TGI (K-562 leukemia) was over 100000 nM, the GI50 (SNB-19 CNS) was 288 nM and the TGI (SNB-19 CNS) was 3110 nM. It also gave a GI50 (SF-539 CNS) of 181 nM, a TGI (SF-539 CNS) of 2860 nM and a GI50 (NCI/ADR-RES ovarian) of 1250 nM. For the same compound, the TGI (NCI/ADR-RES ovarian) was 20700 nM, the GI50 (UACC-62 melanoma) was 120 nM and the TGI (UACC-62 melanoma) was 1580 nM. The GI50 (IGROV1 ovarian) was 101 nM, the TGI (IGROV1 ovarian) was 869 nM and the GI50 (MDA-MB-435) was 277 nM. It also gave a TGI (MDA-MB-435) of 3000 nM, a GI50 (HS 578T breast) of 56.7 nM and a TGI (HS 578T breast) of 537 nM. It also gave a GI50 (HL-60(TB) leukemia) of 94 nM, a GI50 (ACHN renal) of 591 nM and a TGI (ACHN renal) of 21200 nM. For the same compound, the GI50 (KM12 colon) was 324 nM, the TGI (KM12 colon) was 2090 nM and the GI50 (786-0 renal) was 366 nM. The TGI (786-0 renal) was 3550 nM, the GI50 (LOX IMVI melanoma) was 107 nM and the TGI (LOX IMVI melanoma) was 641 nM. It also gave a GI50 (OVCAR-4 ovarian) of 495 nM, a TGI (OVCAR-4 ovarian) of 8090 nM and a GI50 (T-47D breast) of 101 nM. For the same compound, the TGI (T-47D breast) was 4790 nM, the GI50 (COLO 205 colon) was 219 nM and the TGI (COLO 205 colon) was 955 nM. The GI50 (NCI-H226 lung) was 556 nM and the TGI (NCI-H226 lung) was 11100 nM.
